# Active and inactive are the calls of the source.
# What was measured:
# [1] = viability loss in THP-1 monocytes – THP-1 cells, cytotoxicity control for Vif-APOBEC3G degradation inhibitor project, dose response (AID 1117359); format: functional; conditions: THP-1
# [2] = target: T1, Polyadenylate-binding protein 1 (Homo sapiens, UniProt P11940); assay: MLLE binding blockers, Cy5 peptide tracer – biochemical, fluorescence polarization, Cy5-PAM2 peptide, secondary, miRNA deadenylation inhibitor project, dose response (AID 602260); format: functional; conditions: read-out: IC50_Mean
# [3] = target: T1, Polyadenylate-binding protein 1; assay: MLLE domain peptide-binding blockers, IC50 – biochemical, fluorescence polarization, FITC-PAM2 peptide, dose response (AID 602259); format: functional; conditions: read-out: IC50_Mean
# [4] = target: Glyceraldehyde-3-phosphate dehydrogenase (Homo sapiens, UniProt P04406)
# [5] = target: T2, Corticotropin-releasing factor receptor 2/Corticotropin-releasing factor-binding protein (Homo sapiens, UniProt P24387+Q13324); assay: activators of CRF receptor 2 with binding protein – uHTS hits, confirmation (AID 602473); format: functional; conditions: read-out: EC50_Mean
# T2 sequence (Q13324 whole entry): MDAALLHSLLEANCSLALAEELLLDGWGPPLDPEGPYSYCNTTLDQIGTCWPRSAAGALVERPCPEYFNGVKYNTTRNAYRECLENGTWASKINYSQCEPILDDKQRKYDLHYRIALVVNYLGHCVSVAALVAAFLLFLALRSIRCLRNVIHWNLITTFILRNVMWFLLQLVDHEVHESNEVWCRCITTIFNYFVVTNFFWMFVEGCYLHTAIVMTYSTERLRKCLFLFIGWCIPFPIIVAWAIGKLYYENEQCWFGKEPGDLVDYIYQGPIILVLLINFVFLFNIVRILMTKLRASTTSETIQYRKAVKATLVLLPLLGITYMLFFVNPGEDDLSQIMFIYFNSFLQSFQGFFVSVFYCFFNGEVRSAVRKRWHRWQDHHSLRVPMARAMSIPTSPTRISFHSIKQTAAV
# T2 sequence (P24387 whole entry): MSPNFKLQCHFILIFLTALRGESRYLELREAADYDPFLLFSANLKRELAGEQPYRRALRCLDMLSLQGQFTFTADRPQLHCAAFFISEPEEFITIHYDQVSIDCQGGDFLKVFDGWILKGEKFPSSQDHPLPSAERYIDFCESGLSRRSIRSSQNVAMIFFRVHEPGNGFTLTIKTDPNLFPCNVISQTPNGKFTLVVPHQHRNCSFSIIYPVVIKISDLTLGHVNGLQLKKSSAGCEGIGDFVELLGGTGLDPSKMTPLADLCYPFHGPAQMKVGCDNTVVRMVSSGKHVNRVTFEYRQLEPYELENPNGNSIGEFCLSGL
# Estrogen receptor beta = Estrogen receptor beta (Homo sapiens, UniProt Q92731);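 further: recombinant ER-beta bound to coactivator SRC1 peptide in presence of estradiol agonist; inhibitors block coactivator peptide binding and lower the FRET signal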
# [6] = microbe, parasite or virus in culture; format: functional; conditions: Mycobacterium tuberculosis
# Leucine aminopeptidase = target: T3, Leucine aminopeptidase (Plasmodium falciparum 3D7, UniProt Q8IL11); assay: P. falciparum M17LAP inhibitors, primary screen, biochemical, fluorogenic H-Leu-NHMec substrate, 1536-well (AID 1619); format: functional
# T3 sequence (Q8IL11 whole entry): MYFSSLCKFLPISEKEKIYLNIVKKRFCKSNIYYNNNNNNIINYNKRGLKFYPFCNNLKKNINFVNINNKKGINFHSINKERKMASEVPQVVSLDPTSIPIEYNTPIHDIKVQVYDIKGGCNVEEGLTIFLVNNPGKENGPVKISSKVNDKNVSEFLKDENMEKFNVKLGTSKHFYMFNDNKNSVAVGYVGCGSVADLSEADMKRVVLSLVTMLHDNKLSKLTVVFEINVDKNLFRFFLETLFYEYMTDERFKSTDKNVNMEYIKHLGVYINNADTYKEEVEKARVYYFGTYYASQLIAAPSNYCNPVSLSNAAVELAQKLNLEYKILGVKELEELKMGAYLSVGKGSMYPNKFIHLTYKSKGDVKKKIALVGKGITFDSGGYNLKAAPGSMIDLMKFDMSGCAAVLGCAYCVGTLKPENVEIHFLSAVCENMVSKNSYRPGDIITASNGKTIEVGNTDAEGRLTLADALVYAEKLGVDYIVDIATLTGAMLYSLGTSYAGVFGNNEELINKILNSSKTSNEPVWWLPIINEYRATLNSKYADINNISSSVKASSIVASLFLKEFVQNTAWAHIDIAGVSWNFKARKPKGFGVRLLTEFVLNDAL
# Genome polyprotein = Genome polyprotein (dengue virus type 2, UniProt P29990); assay: flavivirus cap methylation enzyme inhibition – biochemical, confirmation dose response, primary screen (AID 588689); format: functional
# CHO = CHO cell viability loss, potency – luminescence, cytotoxicity control for TLR9-MyD88 binding inhibitor project, dose response (AID 588339); format: functional, cell-based, hamster; conditions: Cricetulus griseus;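 further: CHO cells stably coexpressing TLR9 and MyD88 fusions from primary screen; compound exposure lasted 48 hours before viability readout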
# Beta Lactamase = Beta Lactamase (Pseudomonas aeruginosa, UniProt Q932Y6); assay: BLA reporter interference, concentration series – BLA reporter cells, FRET fluorescence, artefact control for TLR9-MyD88 binding inhibitor project, dose response (AID 588341); format: cell-based;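 further: cell based assay in CHO-K1 cells stably expressing beta-lactamase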
# cells = format: functional
# [7] = THP-1 cell cytotoxicity, dose response, cytotoxicity control for non-replicating M. tuberculosis project (AID 489025); format: functional
# [8] = NIH3T3 cell viability loss – ATP luminescence, mouse fibroblasts, counter-screen, dose response (AID 2010); format: functional, cell-based;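 further: cells exposed to compound for about 90 hours before reading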
# [9] = Trypanosoma cruzi growth suppression in host cells – NIH3T3 host cells, beta-gal luminescence, confirmation (AID 2044); format: functional, cell-based;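 further: intracellular parasites grown in NIH/3T3 mouse fibroblasts as host cells; luminescent beta-galactosidase reporter signal from transgenic T. cruzi replicating inside host cells; inhibitors lower the luminescence signal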
# [10] = intracellular Trypanosoma cruzi inhibitors in host cells – cell-based, plate reader, cherry-pick samples, set 3, dose response (AID 651818); format: functional;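 further: compounds incubated with infected cells for about four days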
# Protein RecA = target: T4, Protein RecA (Mycobacterium tuberculosis, UniProt P9WHJ3); assay: Fluorescence Cell-Free Homogeneous Dose Retest to Identify Inhibitors of RecA-Intein Splicing Activity. [Related pubchem assays (depositor defined):AID2097, AID2223, AID489010, AID492950]; format: functional
# T4 sequence (P9WHJ3 whole entry): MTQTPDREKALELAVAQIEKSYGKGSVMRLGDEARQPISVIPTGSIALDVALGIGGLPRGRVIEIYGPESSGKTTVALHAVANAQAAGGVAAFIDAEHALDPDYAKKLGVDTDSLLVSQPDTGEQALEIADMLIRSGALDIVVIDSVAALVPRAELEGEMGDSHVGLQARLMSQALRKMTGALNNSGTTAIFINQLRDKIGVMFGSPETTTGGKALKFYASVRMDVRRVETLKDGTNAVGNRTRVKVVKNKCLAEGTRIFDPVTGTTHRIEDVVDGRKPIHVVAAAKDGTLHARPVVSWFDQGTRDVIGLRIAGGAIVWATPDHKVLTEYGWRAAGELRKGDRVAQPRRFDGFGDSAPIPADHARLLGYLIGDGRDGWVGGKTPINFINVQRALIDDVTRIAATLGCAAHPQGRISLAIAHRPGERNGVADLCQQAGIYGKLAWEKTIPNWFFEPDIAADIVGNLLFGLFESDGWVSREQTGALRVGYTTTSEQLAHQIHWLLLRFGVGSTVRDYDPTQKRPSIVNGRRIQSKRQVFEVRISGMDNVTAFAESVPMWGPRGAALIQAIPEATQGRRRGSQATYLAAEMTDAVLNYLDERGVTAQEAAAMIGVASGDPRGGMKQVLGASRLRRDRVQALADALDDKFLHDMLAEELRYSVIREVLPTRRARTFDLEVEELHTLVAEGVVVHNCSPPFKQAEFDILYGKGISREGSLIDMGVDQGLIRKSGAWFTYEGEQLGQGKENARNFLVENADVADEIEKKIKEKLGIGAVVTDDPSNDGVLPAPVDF
# [11] = target: T5, Replicative DNA helicase DnaB (Mycobacterium tuberculosis, UniProt P9WMR3); assay: DnaB intein splicing inhibitors, dose response, biochemical, cell-free fluorescence (AID 449749); format: functional
# T5 sequence (P9WMR3 whole entry): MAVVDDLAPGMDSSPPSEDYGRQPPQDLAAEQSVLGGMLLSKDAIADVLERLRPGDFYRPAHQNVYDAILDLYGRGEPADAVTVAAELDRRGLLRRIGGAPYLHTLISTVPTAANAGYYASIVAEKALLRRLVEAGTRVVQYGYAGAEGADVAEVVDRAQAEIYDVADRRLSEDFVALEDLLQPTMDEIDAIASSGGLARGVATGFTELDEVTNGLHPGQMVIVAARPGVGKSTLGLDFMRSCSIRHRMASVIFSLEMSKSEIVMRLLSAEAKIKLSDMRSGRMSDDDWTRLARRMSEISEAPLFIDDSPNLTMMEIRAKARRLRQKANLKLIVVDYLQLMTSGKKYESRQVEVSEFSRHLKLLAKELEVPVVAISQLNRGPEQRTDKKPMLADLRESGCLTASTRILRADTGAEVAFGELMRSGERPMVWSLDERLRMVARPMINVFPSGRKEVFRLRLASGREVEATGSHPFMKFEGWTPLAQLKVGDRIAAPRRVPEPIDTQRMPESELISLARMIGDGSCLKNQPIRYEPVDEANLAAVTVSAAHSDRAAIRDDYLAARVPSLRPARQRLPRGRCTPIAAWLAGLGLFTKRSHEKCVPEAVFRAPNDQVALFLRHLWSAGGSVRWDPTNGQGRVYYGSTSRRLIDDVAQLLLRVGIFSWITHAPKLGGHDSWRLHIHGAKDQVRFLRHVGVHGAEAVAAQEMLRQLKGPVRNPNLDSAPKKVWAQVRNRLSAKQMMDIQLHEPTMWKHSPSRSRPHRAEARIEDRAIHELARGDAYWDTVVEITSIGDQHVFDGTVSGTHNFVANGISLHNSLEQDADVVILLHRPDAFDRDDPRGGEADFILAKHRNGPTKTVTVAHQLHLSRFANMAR
# Cytochrome P450 3A4 = Cytochrome P450 3A4 (Homo sapiens, UniProt P08684);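 further: CYP3A4 tested as one member of a cytochrome P450 panel screen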
# Cytochrome P450 2C19 = Cytochrome P450 2C19 (Homo sapiens, UniProt P33261); assay: Cytochrome panel assay with activity outcomes. Panel member name: p450-cyp2c19 Compounds with AC50 equal or less than 10 uM are considered active; format: functional
# Cytochrome P450 2C9 = Cytochrome P450 2C9 (Homo sapiens, UniProt P11712)
# Cytochrome P450 2C9, sequence (P11712 whole entry): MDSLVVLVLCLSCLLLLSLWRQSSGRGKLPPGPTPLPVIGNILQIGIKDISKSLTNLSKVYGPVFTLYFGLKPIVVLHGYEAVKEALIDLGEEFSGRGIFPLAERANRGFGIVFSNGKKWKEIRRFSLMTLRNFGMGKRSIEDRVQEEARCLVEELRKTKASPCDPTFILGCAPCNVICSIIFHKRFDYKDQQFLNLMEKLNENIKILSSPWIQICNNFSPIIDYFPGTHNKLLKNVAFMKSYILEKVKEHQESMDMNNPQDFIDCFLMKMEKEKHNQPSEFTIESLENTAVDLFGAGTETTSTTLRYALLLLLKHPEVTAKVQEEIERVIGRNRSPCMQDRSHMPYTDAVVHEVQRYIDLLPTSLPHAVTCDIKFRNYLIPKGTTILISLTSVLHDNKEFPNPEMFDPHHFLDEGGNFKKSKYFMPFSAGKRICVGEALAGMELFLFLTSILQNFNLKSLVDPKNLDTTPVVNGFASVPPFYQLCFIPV
# Glyceraldehyde-3-phosphate dehydrogenase, sequence (P04406 whole entry): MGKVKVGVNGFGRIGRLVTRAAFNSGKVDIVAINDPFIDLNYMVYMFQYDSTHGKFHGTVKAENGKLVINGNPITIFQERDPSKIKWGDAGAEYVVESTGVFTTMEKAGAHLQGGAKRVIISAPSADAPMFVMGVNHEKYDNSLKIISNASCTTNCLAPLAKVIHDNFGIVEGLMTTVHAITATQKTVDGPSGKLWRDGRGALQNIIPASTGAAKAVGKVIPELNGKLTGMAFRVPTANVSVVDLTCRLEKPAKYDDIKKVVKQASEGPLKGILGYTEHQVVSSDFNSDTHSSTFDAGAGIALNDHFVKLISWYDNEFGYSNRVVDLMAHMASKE
# T1 sequence (P11940 whole entry, the tested form may be a part): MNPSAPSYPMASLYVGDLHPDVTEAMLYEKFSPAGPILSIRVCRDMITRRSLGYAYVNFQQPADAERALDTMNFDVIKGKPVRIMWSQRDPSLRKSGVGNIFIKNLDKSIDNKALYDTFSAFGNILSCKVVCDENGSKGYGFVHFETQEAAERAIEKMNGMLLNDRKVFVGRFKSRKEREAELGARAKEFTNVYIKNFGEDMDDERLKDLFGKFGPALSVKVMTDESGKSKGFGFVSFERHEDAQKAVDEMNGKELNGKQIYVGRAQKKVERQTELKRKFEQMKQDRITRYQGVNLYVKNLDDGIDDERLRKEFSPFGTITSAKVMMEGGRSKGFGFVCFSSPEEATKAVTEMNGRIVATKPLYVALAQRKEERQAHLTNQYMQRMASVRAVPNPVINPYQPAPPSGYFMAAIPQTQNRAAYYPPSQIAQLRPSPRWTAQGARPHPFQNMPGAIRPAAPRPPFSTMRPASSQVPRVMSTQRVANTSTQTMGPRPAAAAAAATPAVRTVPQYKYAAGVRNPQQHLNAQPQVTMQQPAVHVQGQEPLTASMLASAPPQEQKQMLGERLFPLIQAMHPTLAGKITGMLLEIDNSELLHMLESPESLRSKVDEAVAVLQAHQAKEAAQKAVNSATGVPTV
# Estrogen receptor beta, sequence (Q92731 whole entry): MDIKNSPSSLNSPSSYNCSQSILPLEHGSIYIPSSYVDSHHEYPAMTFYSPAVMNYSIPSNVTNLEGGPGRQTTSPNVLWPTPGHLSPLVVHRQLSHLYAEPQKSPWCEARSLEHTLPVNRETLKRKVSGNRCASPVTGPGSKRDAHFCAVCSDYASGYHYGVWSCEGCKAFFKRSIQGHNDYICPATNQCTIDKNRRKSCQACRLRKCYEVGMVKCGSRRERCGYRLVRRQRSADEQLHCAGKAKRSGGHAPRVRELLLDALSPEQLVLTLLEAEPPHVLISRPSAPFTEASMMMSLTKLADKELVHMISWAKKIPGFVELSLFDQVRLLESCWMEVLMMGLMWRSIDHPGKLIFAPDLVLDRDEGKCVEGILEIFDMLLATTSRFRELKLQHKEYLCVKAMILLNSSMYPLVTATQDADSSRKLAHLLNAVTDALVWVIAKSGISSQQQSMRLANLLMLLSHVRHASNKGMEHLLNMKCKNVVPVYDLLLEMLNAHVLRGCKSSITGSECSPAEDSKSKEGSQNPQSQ
# Cytochrome P450 3A4, sequence (P08684 whole entry): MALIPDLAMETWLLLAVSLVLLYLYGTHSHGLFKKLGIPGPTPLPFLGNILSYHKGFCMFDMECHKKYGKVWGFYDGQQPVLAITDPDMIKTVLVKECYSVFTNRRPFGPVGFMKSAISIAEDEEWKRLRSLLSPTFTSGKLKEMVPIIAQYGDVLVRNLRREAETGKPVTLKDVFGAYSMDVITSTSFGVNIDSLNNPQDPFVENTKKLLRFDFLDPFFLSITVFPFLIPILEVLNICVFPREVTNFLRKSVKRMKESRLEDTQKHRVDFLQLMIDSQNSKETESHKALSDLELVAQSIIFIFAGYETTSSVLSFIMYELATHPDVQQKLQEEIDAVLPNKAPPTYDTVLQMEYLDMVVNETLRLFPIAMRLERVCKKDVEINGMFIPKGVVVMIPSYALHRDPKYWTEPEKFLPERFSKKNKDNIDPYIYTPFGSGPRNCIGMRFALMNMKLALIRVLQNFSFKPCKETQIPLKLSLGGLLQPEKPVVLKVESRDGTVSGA
# Genome polyprotein, sequence (P29990 2492-3391 limits assumed): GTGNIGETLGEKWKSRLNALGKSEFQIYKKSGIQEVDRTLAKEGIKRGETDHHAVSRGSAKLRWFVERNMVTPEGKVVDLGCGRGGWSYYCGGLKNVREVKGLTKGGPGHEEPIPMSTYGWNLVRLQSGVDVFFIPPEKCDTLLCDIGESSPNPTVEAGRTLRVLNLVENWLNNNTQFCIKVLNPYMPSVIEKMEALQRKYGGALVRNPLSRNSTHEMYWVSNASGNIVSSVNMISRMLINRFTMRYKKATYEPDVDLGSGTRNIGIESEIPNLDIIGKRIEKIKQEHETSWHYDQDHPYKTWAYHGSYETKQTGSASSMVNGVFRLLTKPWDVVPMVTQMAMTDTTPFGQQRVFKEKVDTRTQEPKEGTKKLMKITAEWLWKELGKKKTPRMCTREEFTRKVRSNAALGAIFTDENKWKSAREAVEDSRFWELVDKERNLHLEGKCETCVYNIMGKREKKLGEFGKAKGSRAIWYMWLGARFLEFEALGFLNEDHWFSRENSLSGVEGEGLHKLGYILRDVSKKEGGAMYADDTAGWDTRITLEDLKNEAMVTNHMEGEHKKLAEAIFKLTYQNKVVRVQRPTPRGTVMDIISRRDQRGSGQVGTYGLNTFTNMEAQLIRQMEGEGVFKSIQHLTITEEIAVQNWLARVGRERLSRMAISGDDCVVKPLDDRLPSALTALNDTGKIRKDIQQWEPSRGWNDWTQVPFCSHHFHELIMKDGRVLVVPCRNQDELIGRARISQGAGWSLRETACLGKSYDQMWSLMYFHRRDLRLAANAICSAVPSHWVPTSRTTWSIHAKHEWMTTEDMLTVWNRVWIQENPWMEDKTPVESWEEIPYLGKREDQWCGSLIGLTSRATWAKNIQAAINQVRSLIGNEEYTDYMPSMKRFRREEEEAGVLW
# Beta Lactamase, sequence (Q932Y6 whole entry): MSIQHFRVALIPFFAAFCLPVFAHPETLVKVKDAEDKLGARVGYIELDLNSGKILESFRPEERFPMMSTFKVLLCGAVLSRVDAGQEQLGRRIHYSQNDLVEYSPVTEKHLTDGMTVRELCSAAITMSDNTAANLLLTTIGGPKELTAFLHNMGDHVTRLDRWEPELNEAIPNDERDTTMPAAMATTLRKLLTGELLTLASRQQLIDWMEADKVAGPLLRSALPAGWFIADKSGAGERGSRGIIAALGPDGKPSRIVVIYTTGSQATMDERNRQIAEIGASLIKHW
# Cytochrome P450 2C19, sequence (P33261 whole entry): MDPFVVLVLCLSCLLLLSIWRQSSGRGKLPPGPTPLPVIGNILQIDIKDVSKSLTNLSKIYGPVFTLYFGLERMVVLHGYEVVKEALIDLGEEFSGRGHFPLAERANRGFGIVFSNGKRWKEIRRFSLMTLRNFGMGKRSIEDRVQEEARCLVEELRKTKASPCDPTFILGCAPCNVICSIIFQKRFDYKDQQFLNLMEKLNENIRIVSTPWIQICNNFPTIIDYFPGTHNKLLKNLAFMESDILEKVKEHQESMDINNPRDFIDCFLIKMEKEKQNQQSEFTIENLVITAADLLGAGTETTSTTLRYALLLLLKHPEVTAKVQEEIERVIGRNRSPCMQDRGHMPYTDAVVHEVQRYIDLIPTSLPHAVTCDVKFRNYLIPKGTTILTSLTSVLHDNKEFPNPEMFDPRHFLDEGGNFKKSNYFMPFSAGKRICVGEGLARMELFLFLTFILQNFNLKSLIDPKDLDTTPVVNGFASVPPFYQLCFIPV
smiles,measurement,setting,value
COc1cccc(/C=C2\SC(N)=NC2=O)c1OS(=O)(=O)c1ccccc1,CC50,[1],> 40 µM (active)
CS(=O)(=O)c1cccc(C(=O)Nc2nnc(C3=COCCO3)o2)c1,IC50,[2],> 66 µM (inactive)
same,IC50,[3],> 66 µM (inactive)
O=C(O)CCCCC(=O)c1ccc(CC(=O)O)s1,IC50,[4],> 100 µM (not active)
COC(=O)c1scc2c(O)cc(C(F)(F)F)nc12,IC50,[2],> 66 µM (inactive)
same,IC50,[3],35.7 µM (inactive)
same,EC50,[5],5.75 µM (active)
N#Cc1cc2c(=O)n3ccccc3nc2n(CCCn2ccnc2)c1=N,IC50,Estrogen receptor beta,> 50 µM (not active)
Cc1ccc(S(=O)(=O)NC(CC(C)C)C(=O)N2CCN(C/C=C/c3ccccc3)CC2)cc1 (stereo not given),CC50,[6],> 40 µM (active)
same,CC50,[1],> 40 µM (active)
CCOc1ccc(C(=O)CN2CCN(S(=O)(=O)c3ccc(OC)cc3)CC2)cc1,IC50,Leucine aminopeptidase,73.5 µM (active)
O=C1NC(=S)N/C1=C\c1ccc(-c2cc([N+](=O)[O-])ccc2Br)o1,IC50,[4],> 100 µM (not active)
Clc1ccc(-c2nc3cnccn3c2Nc2ccc3c(c2)OCO3)cc1,CC50,[1],19.9 µM (active)
COc1ccc(CCN(C)C(=O)COC(=O)/C=C/c2ccc(C)o2)cc1OC,CC50,[1],> 40 µM (active)
CCC(=O)NC(=S)Nc1c(C)cc(Br)cc1C,IC50,[2],> 66 µM (inactive)
same,IC50,[3],> 66 µM (inactive)
COc1ccccc1-c1c(C)nn2c(O)c(Cc3ccccc3)c(C)nc12,CC50,[1],> 40 µM (active)
O=C(NNC(=O)C1CC2CCC1C2)c1sc2ccccc2c1Cl (stereo not given),IC50,Leucine aminopeptidase,68.1 µM (active)
O=C1C(Cl)=C(N2CCN(CCO)CC2)C(=O)N1c1cccc(C(F)(F)F)c1,IC50,[4],> 50 µM (inconclusive)
CC1(C(=O)O)CC(C)(C(=O)O)CC(C)(C(=O)O)C1 (stereo not given),IC50,Leucine aminopeptidase,58.7 µM (active)
O=C(O)c1cc([N+](=O)[O-])c(Nc2cccc3ccccc23)c([N+](=O)[O-])c1,IC50,Genome polyprotein,64.7 µM (active)
COc1ccc(OC)c(C=Cc2ccc([N+](=O)[O-])cc2)c1,IC50,CHO,> 49.7 µM (inactive)
same,IC50,Beta Lactamase,8.19 µM (active)
Cc1cc(C)n(CC(=O)N/N=C/c2ccc([N+](=O)[O-])s2)n1,IC50,cells,48.5 µM (active)
same,CC50,[7],> 40 µM (active)
same,EC50,[8],> 60 µM (not active)
same,EC50,[9],0.845 µM (active)
C[C@H]1CN([C@@H](C)CO)C(=O)c2cccc(NC(=O)Nc3cccc4ccccc34)c2O[C@H]1CN(C)Cc1ccc(C(F)(F)F)cc1,AC50,[10],2.85 µM (active)
C[C@H](CO)N1C[C@H](C)[C@@H](CN(C)CC2CC2)Oc2c(NC(=O)CCCCCC(=O)Nc3ccccc3N)cccc2C1=O,AC50,[10],2.88 µM (active)
C[C@@H]1CN([C@H](C)CO)C(=O)c2cccc(NC(=O)CCCCCC(=O)Nc3ccccc3N)c2O[C@@H]1CN(C)S(=O)(=O)c1ccc(F)cc1,AC50,[10],3.66 µM (active)
C[C@H](CO)N1C[C@H](C)[C@H](CN(C)Cc2ccc(Cl)c(Cl)c2)Oc2c(NC(=O)Nc3ccc4c(c3)OCO4)cccc2C1=O,AC50,[10],2.61 µM (active)
C[C@@H]1CCCCO[C@@H](CN(C)CC2CCCCC2)[C@@H](C)CN([C@H](C)CO)C(=O)c2cc(NC(=O)Nc3ccc(C(F)(F)F)cc3)ccc2O1,AC50,[10],1.63 µM (active)
Cc1[nH]n(-c2ccccc2)c(=O)c1Sc1ccc(Cl)cc1,EC50,Protein RecA,4.68 µM (active)
same,IC50,Estrogen receptor beta,> 50 µM (not active)
same,IC50,Leucine aminopeptidase,37.4 µM (active)
same,AC50,[11],12.2 µM (active)
COc1ccc(-n2c(SC)nc(O)c(Cc3ccccc3)c2=O)cc1,IC50,Leucine aminopeptidase,46 µM (active)
same,AC50,Cytochrome P450 3A4,22.4 µM (inconclusive)
same,AC50,Cytochrome P450 2C19,7.94 µM (inconclusive)
same,AC50,Cytochrome P450 2C9,12.6 µM (inconclusive)
